Experimental data taken from patent publication US20090202660A1, “Agents and Methods for Osteogenic Oxysterols Inhibition of Oxidative Stress on Osteogenic Cellular Differentiation” (The Regents of the University of California, priority 2005, published 2009).

Columns and labels:
[1] = tested on: M2-10B4 marrow stromal cells; experiment: Colorimetric alkaline phosphatase (ALP) activity assay on whole cell extracts; details: for alkaline phosphatase activity (induction): M2 cells in osteogenic medium, oxysterols 0.5-10 μM, 3-4 days; for alkaline phosphatase activity, synergy with oxysterols: marrow stromal cells, BMP with oxysterols; for alkaline phosphatase activity: ligands used at 10 μM, control 18±2, ±SD; for inhibition of oxysterol-induced alkaline phosphatase activity: M2 cells pretreated with inhibitor, then 22R+20S oxysterols, 3 days; for Enzyme Activity (units/mg total cellular protein) ± SD: alkaline phosphatase, oxysterols 5 μM, 4 days, untreated 6 ± 3
Description: Alkaline phosphatase activity assay: Colorimetric alkaline phosphatase (ALP) activity assay on whole cell extracts was performed as previously described.
Test 1: M2 cells at confluence were treated with control vehicle (C), or 10 µM oxysterols, in an osteogenic medium consisting of RPMI 1640 to which 10% fetal bovine serum (FBS), 50 µg/ml ascorbate and 3 mM beta-glycerophosphate (□GP) were added. After 3 days of incubation, alkaline phosphatase (ALP) activity was determined in cell homogenates by a colorimetric assay.
M2 cells at confluence were treated in osteogenic medium with control vehicle (C) or a combination of 22R and 20S oxysterols, at the indicated concentrations. ALP activity was measured after 3 days as described above.
Test 2: M2 cells were grown in RPMI medium containing 10% fetal bovine serum (FBS). At confluence, the cells were treated in RPMI containing 5% FBS plus ascorbate at 50 μg/ml and β-glycerophosphate at 3 mM to induce osteoblastic differentiation. Adipogenic differentiation was induced by treating the cells in growth medium plus 10˜M troglitazone. A vehicle (C) or oxysterol treatment was applied to cells in a variety of doses (in μM): 20S-Hydroxycholesterol, 25-Hydroxycholesterol, 22R-Hydroxycholesterol; 22S-Hydroxycholesterol; 7-ketocholesterol. Cells were always treated at 90% confluence. After 4 days, alkaline phosphatase activity was determined in whole cell lysates and normalized to protein. Alternatively, MSC cultures were prepared and treated with oxysterols as described above. Cells were treated at 90% confluence with the combination of 22R-Hydroxycholesterol and 20S-Hydroxycholesterol, each at 5 μM, for 4 to 96 hours. The oxysterols where removed and fresh media without oxysterols was added for a total duration of 96 hours. Alkaline phosphatase activity was measured in whole cell extracts and normalized to protein.
Cells were treated with the oxysterols (5 μM) for 4 days after which they were collected and analyzed by colorimetric assay for alkaline phosphatase activity. Results from a representative experiment are shown as the average of quadruplicate determination ±SD.

[2] = tested on: M2 cells; experiment: Troglitazone-induced adipogenesis, oil Red O staining and adipocyte count; type: cell-based, mouse; details: troglitazone 10 μM, oxysterols 10 μM, 8-10 days
Description: (§1) Von Kossa and oil red O staining—Matrix mineralization in cell monolayers was detected by silver nitrate staining as previously described. Oil red O staining for detection of adipocytes was performed as previously described.
Test 1: M2 cells at 90% confluence were treated with vehicle (C), PPAR-γ activator, troglitazone 10 uM (Tro), alone or in combination with 10 μM oxysterols 20S-, 22R-, or 25S-hydroxycholesterol. After 8 days, adipocytes were identified by oil Red 0 staining and quantified by counting under a phase contrast microscope. FIG. 6A is a bar graph depicting the effect of oxysterols on reducing adipogenesis of MSC.
Test 2: (A) M2 cells at confluence were treated in RPMI containing 10% FBS with control vehicle or 10 μM troglitazone (Tro) in the absence or presence of 10 μM 20S or 22S oxysterols. After 10 days, adipocytes were visualized by oil Red O staining and quantified by light microscopy, shown in (B). […] (C) M2 cells were treated at confluence with 10 μM Tro, alone or in combination with 10 μM 20S oxysterol. After 10 days, total RNA was isolated and analyzed for lipoprotein lipase (LPL), adipocyte P2 gene (aP2) or 18S rRNA expression by Northern blotting as described (Ref). Data from densitometric analysis of the Northern blot is shown in (D) as the average of duplicate samples, normalized to 18S rRNA.

[3] = tested on: M2-10B4 marrow stromal cells; experiment: Matrix mineralization (45Ca incorporation assay, von Kossa staining); type: cell-based, mouse; details: for mineralization, synergy with oxysterols: marrow stromal cells, BMP with oxysterols; for mineralization: M2 cells in osteogenic medium, 10-14 days; for inhibition of oxysterol-induced mineralization: M2 cells pretreated with inhibitor, then 22R+20S oxysterols, 10 days
Description: as §1
^45Ca incorporation assay—Matrix mineralization in cell monolayers was quantified using the ^45Ca incorporation assay as previously described.
After 14 days, mineralization was identified by a von Kossa staining, which appears black. FIG. 3C is a depiction of von Kossa staining of M2 cells exposed to various conditions. […]

[4] = tested on: osteocalcin mRNA; experiment: Northern blotting for osteocalcin mRNA in M2 cells; type: cell-based, mouse; details: for osteocalcin expression, synergy with osteogenic oxysterols: BMP 50 ng/ml with 22S+20S (SS, 2.5 μM), eight days; for osteocalcin gene expression: M2 cells in osteogenic medium, up to 14 days
Description: RNA isolation and Northern blot analysis—Following treatment of cells under appropriate experimental conditions, total RNA was isolated using the RNA isolation kit from Stratagene (La Jolla, Calif., U.S.A.). Total RNA ([…]) was run on a 1% agarose/formaldehyde gel and transferred to Duralon-UV membranes (Strategene, Calif., U.S.A.) and cross-linked with UV light. The membranes were hybridized overnight at 60 degree C. with ^32P-labeled mouse osteocalcin cDNA probe, mouse lipoprotein lipase (LPL), mouse adipocyte protein 2 (aP2) PCR-generated probes, human 28S or 18S rRNA probes obtained from Geneka Biotechnology (Montreal, Quebec, Canada) and Maxim Biotech (San Francisco, Calif., U.S.A.), respectively. The PCR products were generated using primer sets synthesized by Invitrogen (Carlsbad, Calif., U.S.A.) with the following specifications: mouse aP2 gene (accession no. M13261); sense (75-95) 5′-[…]-3′, antisense (362-383) 5′-[…]-3′, generating a PCR product of 309 base pairs. Mouse LPL (accession no. XM—134193); sense (1038-1058) 5′-[…]-3′, antisense (1816-1836) 5′-[…]-3′, generating a PCR product of 799 base pairs. […] Following hybridization, the blots were washed twice at room temperature with 2×SSC+0.1% SDS, and then twice at 60 degree C. with 0.5×SSC+0.1% SDS, and exposed to X-ray film. The extent of gene induction was determined by densitometry.
After 4 and 8 days, total RNA from duplicate samples was isolated and analyzed for osteocalcin (Osc) and 28S rRNA expression by Northern blotting as described. FIG. 3E is a radiogram of Northern blotting for osteocalcin mRNA in M2 cells exposed to a control or combination of oxysterols for 4 or 8 days. FIG. 3F is a bar graph depicting the relative demsometric units of osteocalcin mRNA in M2 cells exposed to a control or combination of oxysterols for 4 or 8 days. Data from densitometric analysis of the Northern blot is shown in (F) as the average of duplicate samples, normalized to 28S rRNA.
RNA Isolation and Northern Blot Analysis—Total RNA was isolated using the RNA isolation kit from Stratagene (La Jolla, Calif., USA). Northern blotting and analysis of osteocalcin mRNA and 18S rRNA expression was performed as previously described (23).

[5] = tested on: marrow stromal cells; experiment: Markers of osteogenic differentiation in marrow stromal cells (ALP, osteocalcin mRNA, mineral formation); type: cell-based, mouse; details: for osteogenic property (markers of osteoblastic differentiation): alone or in combination with originally described oxysterols
Description: Next, a combination of 22R and 20S oxysterols (RS, 2.5 μM each) were added in the presence or absence of SC as indicated. After 3 days, ALP activity was measured as described earlier. […] (B) M2 cells were treated as described in (A) and after 10 days matrix mineralization in cultures was quantified by a ^45Ca incorporation assay as described earlier. […] (C) M2 cells were pretreated with 20 μM SC for 4 hours, followed by the addition of RS in the presence or absence of SC as described above. After 8 days, total RNA was isolated and analyzed for osteocalcin (Osc) and […] expression by Northern blotting as previously described. Data from densitometric analysis of the Northern blot is shown in (D) as the average of duplicate samples, normalized to 18S rRNA. (E) M2 cells at confluence were pretreated for 2 hours with control vehicle (C), or PLA2 inhibitors ACA (25 μM) and AACOCF3 (AAC, 20 μM), in osteogenic medium. Next, a combination of 22R and 20S oxysterols (RS, 2.5 μM) was added in the presence or absence of the inhibitors as indicated. After 3 days, ALP activity was measured as previously described. […] (F) M2 cells were treated as described in (E). After 10 days, matrix mineralization in cultures was quantified using a ^45Ca incorporation assay as previously described. Results from a representative of three experiments are shown, reported as the mean of quadruplicate determinations±SD, normalized to protein concentration (p<0.01 for RS vs. RS+ACA and RS+AAC).
The purpose of the study was to identify other osteogenic and anti-adipogenic oxysterols based on the chemical structure of previously identified oxysterols. We tested the ability of such candidate oxysterol molecules to induce the formation of osteoblastic cells in cultures of marrow stromal cells, which are progenitors of osteoblastic cells that make bone. In order to assess osteogenic differentiation of cells, one or more markers of osteogenic differentiation were measured in untreated cells and cells treated with the test oxysterols. These markers included: alkaline phosphatase activity, osteocalcin mRNA expression and mineral formation in cultures of marrow stromal cells. Activation of either one or more than one marker by a single or combination oxysterols is indicative of their osteogenic property.

## CC(C)CCC[C@@H](C)[C@H]1CC[C@H]2[C@@H]3C(=O)C=C4C[C@@H](O)CC[C@]4(C)[C@H]3CC[C@]12C [7-ketocholesterol, reference compound]
[1]
  alkaline phosphatase activity (induction): did not induce alkaline phosphatase activity
[2]
  inhibition of adipogenesis: unable to inhibit adipogenesis

## BMP14: bone morphogenic protein 14
[3]
  mineralization, synergy with oxysterols: synergistically induced
[4]
  osteocalcin expression, synergy with osteogenic oxysterols: synergistic induction
[1]
  alkaline phosphatase activity, synergy with oxysterols: synergistically induced

## O=S(=O)(c1ccccc1)N(CC(F)(F)F)c1ccc(C(O)(C(F)(F)F)C(F)(F)F)cc1 [TO, TO-901317, reference compound]
[3]
  mineralization: did not induce
[4]
  osteocalcin gene expression: did not induce
[1]; M2 cells, TO at 1-10 μM
  inhibition of alkaline phosphatase activity: dose-dependent inhibition
[1]; M2 cells
  alkaline phosphatase activity: 3±0.5 activity units/mg protein

## CCCCCc1ccc(/C=C/C(=O)Nc2ccccc2C(=O)O)cc1 [ACA, reference compound]
[3]
  inhibition of oxysterol-induced mineralization: inhibited
[1]
  inhibition of oxysterol-induced alkaline phosphatase activity: inhibited

## CCCCC/C=C\C/C=C\C/C=C\C/C=C\CCCC(=O)C(F)(F)F [AACOCF3, reference compound]
[3]
  inhibition of oxysterol-induced mineralization: inhibited
[1]
  inhibition of oxysterol-induced alkaline phosphatase activity: inhibited

## COc1cccc(-c2cc(=O)c3ccccc3o2)c1N [PD98059, reference compound]
[3]
  inhibition of oxysterol-induced mineralization: inhibited
[4]; M2 cells pretreated with inhibitor, then 22R+20S oxysterols, 8 days
  inhibition of oxysterol-induced osteocalcin gene expression: not

## CC(C)C(O)CC[C@@H](C)[C@H]1CC[C@H]2[C@@H]3CC=C4C[C@@H](O)CC[C@]4(C)[C@H]3CC[C@]12C (stereo partly shown) [24-hydroxycholesterol]
[5]
  osteogenic property (markers of osteoblastic differentiation): osteoinductive
[1]
  Enzyme Activity (units/mg total cellular protein) ± SD: 250 ± 20 units/mg total cellular protein

## CC(C)CC[C@H](O)[C@@H](C)[C@H]1CC[C@H]2[C@@H]3CC=C4C[C@@H](O)CC[C@]4(C)[C@H]3CC[C@]12C [22S-hydroxycholesterol]
[3]
  mineralization: unable to induce
[4]
  osteocalcin gene expression: unable to induce
[1]
  alkaline phosphatase activity (induction): induced alkaline phosphatase activity
[2]
  inhibition of adipogenesis: inhibited adipogenesis

## CC(C)CCC[C@@H](C)[C@H]1CC[C@H]2[C@@H]3[C@H](O)C=C4C[C@@H](O)CC[C@]4(C)[C@H]3CC[C@]12C [7alpha-hydroxycholesterol, reference compound]
[5]
  osteogenic property (markers of osteoblastic differentiation): did not appear to affect any measures of osteoblastic differentiation

## C[C@H](CC[C@@H]1OC1(C)C)[C@H]1CC[C@H]2[C@@H]3CC=C4C[C@@H](O)CC[C@]4(C)[C@H]3CC[C@]12C [24S,25-epoxycholesterol]
[5]
  osteogenic property (markers of osteoblastic differentiation): osteoinductive
[1]
  Enzyme Activity (units/mg total cellular protein) ± SD: 1,588 ± 19 units/mg total cellular protein

## C[C@@H](CO)CCC[C@@H](C)[C@H]1CC[C@H]2[C@@H]3CC=C4C[C@@H](O)CC[C@]4(C)[C@H]3CC[C@]12C [26-hydroxycholesterol]
[5]
  osteogenic property (markers of osteoblastic differentiation): osteoinductive
[1]
  Enzyme Activity (units/mg total cellular protein) ± SD: 655 ± 93 units/mg total cellular protein

## CC(C)CC[C@@H](O)[C@@H](C)[C@H]1CC[C@H]2[C@@H]3CC=C4C[C@@H](O)CC[C@]4(C)[C@H]3CC[C@]12C [22R-hydroxycholesterol]
[3]
  mineralization: unable to induce
[4]
  osteocalcin gene expression: unable to induce
[1]
  alkaline phosphatase activity (induction): induced alkaline phosphatase activity
[1]; M2 cells
  alkaline phosphatase activity: 45±5 activity units/mg protein
[2]
  inhibition of adipogenesis: inhibited adipogenesis

## CC(C)CCC[C@@H](C)[C@H]1CC[C@H]2[C@@H]3CC=C4[C@@H](O)[C@@H](O)CC[C@]4(C)[C@H]3CC[C@]12C [4beta-hydroxycholesterol]
[4]; M2-10B4 cells treated for eight days, FIG. 20
  osteocalcin mRNA: moderate increase

## CS(=O)(=O)Nc1ccc([N+](=O)[O-])cc1OC1CCCCC1 [NS-398, reference compound]
[5]; M2 cells
  highest non-toxic dose: 20 µM
[5]; SC-560 at 1-20 μM, NS-398 at 20 μM
  inhibition of the osteogenic effects of oxysterol combinations: negligible inhibitory effects

B1: BMP7: bone morphogenic protein 7 (protein, UniProt P18075 293-431, looked up)
Bone morphogenetic protein 7: STGSKQRSQNRSKTPKNQEALRMANVAENSSSDQRQACKKHELYVSFRDLGWQDWIIAPEGYAAYYCEGECAFPLNSYMNATNHAIVQTLVHFINPETVPKPCCAPTQLNAISVLYFDDSSNVILKKYRNMVVRACGCH
[3]
  mineralization, synergy with oxysterols: synergistically induced
[4]
  osteocalcin expression, synergy with osteogenic oxysterols: synergistic induction
[1]
  alkaline phosphatase activity, synergy with oxysterols: synergistically induced
